# Laboratory results taken from patent US20190144368A1, “Compounds and compositions for biofilm prevention” (INHIBIO AS, priority 2016, published 2019).
# Where “and” joins values, the source holds several entries; their conditions need not be identical. Identical values can stand only once. Entries after “also recorded” stand apart in the source; their conditions may differ.
# Experiments:
# [1] = NMR of cyclohexane-1,3-dione in aqueous solution (keto-enol tautomerism); type: physicochemical; conditions: NMR-data
# Source text: In one embodiment, the compounds of the composition are able to undergo keto-enol tautomerism. Particularly 1,3-cyclodions, such as 1,3-cyclohexanediones, particularly such diones wherein neither or maximum one substituents are present in the C-2 position, have been found favourable as they can undergo keto-enol tautomerism. NMR-data of cyclohexane-1,3-dione support that in aqueous solution this compound exists in a highly enolised form where electrons are delocalised between the C-1-oxygen/C-1, C-2 and C-3/C-3-oxygen thereby rendering the C-2 methylene protons relatively acidic. […] It is believed that the acidity of the C-2 protons affect the solubility of the compound, providing a higher solubility than e.g. similar 1,4-carbocyclic compounds.
# [2] = tested on: E. coli 1242 and E. coli 1153; assay: Biofilm formation in microtiter plates, comparison of 1,3-cyclohexanedione and menthone; type: cell-based, Escherichia coli; conditions: two values, one per strain (E. coli 1242, E. coli 1153)
# Protocol: All experiments were performed by using sterile 96-wells polystyrene microtiter plates (Nunc, Nuncleon, Roskilde, Denmark) under conditions promoting biofilm formation by the different bacterial genera. The Inhibio compound preparations of the invention; 1,3-cyclohexanedione, 1,4-cyclohexanedione, cyclopentanone, 5-ethylcyclohexane-1,3-dione and 5-methyl-1,3 cyclohexanedione 98% were solved directly in Tryptic Soy Broth (TSB) 1+1 or Liquid Microbiology Broth (LB) broth without NaCl (LB^wo/NaCl) to obtain the test concentrations, i.e. from 1 mg/ml to 10 mg/ml.
# One Salmonella ser. Typhimurium (S. Typhimurium), two Salmonella ser. Agona (S. Agona) and two Escherichia coli (E. coli) isolates were used in these studies. The studies performed using 1,3-cyclohexanedione and 1,4-cyclohexanedione were done on Salmonella isolates only. The studies comparing Menthone to 1,3-cyclohexanedione were using two E. coli strains, E. coli 1242 and E. coli 1153, see FIG. 11. The Salmonella isolates were isolated from Norwegian feed factories except one S. Typhimurium strain which was a culture collection strain (ATCC 14028). The E. coli isolates were of animal origin. All strains were stored at −80° C. in BHI supplemented with 15% glycerine and were recovered on blood agar at 37.0±1.0° C. The bacterial cultures were then transferred into LB broth and incubated statically overnight at 37.0±1.0° C. to obtain an overnight working culture. […] After incubation, OD595 was measured before the plates were gently washed one time with 150 μl tap water. […] OD595 was measured in a microplate photometer (Multiscan EX) after the bound dye was dissolved using ethanol:acetone. For each strain, the result was calculated by subtracting the median OD595 of the three parallels of the control (test broth only) from the median OD595 of the three parallels of sample. Further, the averages of the Gram negative strains were calculated. Three independent experiments were performed and the average was evaluated.
# [3] = tested on: S. Agona and E. coli (one strain each); assay: Biofilm formed on stainless steel coupons by Gram negative bacteria (CFU count); type: cell-based, Salmonella ser. Agona, Escherichia coli; conditions: 20 °C for 72 hours
# Protocol: One strain of S. Agona (FIG. 10) and one strain of E. coli (FIG. 10) was used in this study. The study was performed using 1,3-cyclohexanedione in a concentration of 1 and 10 mg/ml. The strain was stored at −80° C. in BHI (Difco, BD, Franklin Lakes, N.J., USA) supplemented with 15% glycerine (Merck KGaA, Darmstadt, Germany) and was recovered on blood agar at 37.0±1.0° C. The bacterial culture was then transferred into LB broth and was incubated statically overnight at 37.0±1.0° C. to obtain an overnight working culture. The Inhibio compound was dissolved in LB^wo/NaCl to a concentration of 10 mg/ml and then further diluted to a concentration of 1 mg/ml. 10 ml of each solution was added to a 50 ml Falcon tube and, in a third tube, only LB broth^wo/NaCl was added as a control. […]
# Following incubation, each coupon was dipped three times in three different tubes containing physiological saline and further transferred to a tube containing 5 ml cold physiological saline as well as 20 sterile silica glass beads. […] After incubation, the bacterial colonies were counted. […]
# The Colony forming units (CFU) on the plate was calculated into CFU in biofilm by multiplying with a factor for each dilution. Further, the log value was calculated of the average of each dilution.
compound,measurement,setting,value
"O=C1CCCC(=O)C1 [1,3-cyclohexanedione]",stability of tautomers,[1],stable at least over one day
same,decrease in biofilm formation,[2]; 1 mg/ml,46% and 70%
same,decrease in biofilm formation,[2]; 10 mg/ml,97% and 100%
same,CFU in biofilm on stainless steel coupon,[3]; 1 mg/ml,decrease in biofilm formation; also recorded: significant decrease
same,CFU in biofilm on stainless steel coupon,[3]; 10 mg/ml,could not detect any colony forming units; also recorded: no bacteria found in the biofilm
